The values below come from US20240158797A1, “ANTISENSE OLIGONUCLEOTIDES FOR THEIR USE IN AN ANTI-CANCER TREATMENT” (UNIVERSITÉ GRENOBLE ALPES, priority 2021, published 2024).

One data set concerns huntingtin protein (HTT). As to the kind of experiment: Huntingtin (HTT) protein expression level test (western blot) in transfected glioma cells. It counts as cell-based. The note with it: glioma cells (U251, U87, T98G) transfected with 100 μM ASO in lipofectamine for 48 h; western blot vs ASO Scr / lipofectamine alone. The protocol:
(§1) The U87, T98G and U251 glioma cell lines are cultured in DMEM medium («Dulbecco/Vogt modified Eagle's minimal essential medium» supplemented with 10% fetal calf serum and 1% penicillin and streptomycin.
(§2) When the cultures are at 60% confluence, they are transfected with 100 μM of antisense oligonucleotide (ASO) RG6042 (of sequence SEQ ID NO: 1), or PH1 (SEQ ID NO: 2) or PH2 (SEQ ID NO: 3) or PH3 (SEQ ID NO: 4) or Scr in lipofectamine for 48 h. The ASO Scr (for «scramble» is an ASO serving as a control whose sequence SEQ ID NO: 5 is <A*CATG*>A*C*C*G*C*A*C*T*C*A*<CTAT*A> where * is a phosphorothioate bond and the bases between the signs < and > are 2′-O-methoxyethyl RNA. […]
FIG. 1 illustrates in A the results of the western blot carried out from cells of the U251 cell line having been transfected with ASO RG6042, with the ASO Scr or simply treated with lipofectamine alone (Ctrl for control), and, in B, the quantification of HTT protein levels obtained by western blot after 4 repetitions of the experiment presented in A.
FIG. 2 illustrates in A the result of the western blot produced from cells of the U87 cell line having been transfected with ASO RG6042, with ASO Scr or treated with lipofectamine alone (Ctrl), and, in B, the quantification of HTT protein levels obtained by western blot after at least 3 repetitions of the experiment presented in A. […]

The subject of data set [1] is 6-O-methylguanine DNA methyltransferase (MGMT) protein. As to the kind of experiment: Test of the expression level of the MGMT protein (western blot) in T98G cells. It is filed as cell-based. The note with it: for levels of MGMT protein: T98G glioma cells, 100 μM ASO in lipofectamine 48 h, western blot vs ASO Scr, at least four repetitions. The protocol:
as §1
(§3) When the cultures are at 60% confluence, they are transfected with 100 μM of antisense oligonucleotide (ASO) RG6042 (of sequence SEQ ID NO: 1), or PH1 (SEQ ID NO: 2) or PH2 (SEQ ID NO: 3) or PH3 (SEQ ID NO: 4) or Scr in lipofectamine for 48 h. The ASO Scr (for «scramble» is an ASO serving as a control whose sequence SEQ ID NO: 5 is <A*CATG*>A*C*C*G*C*A*C*T*C*A*<CTAT*A> where * is a phosphorothioate bond and the bases between the signs < and > are 2′-O-methoxyethyl RNA.
Cells transfected with ASO RG6042, ASO Scr, or treated with lipofectamine alone (for control), are harvested for the test of the expression level of the MGMT protein.
The protocol is the same as for the previously cited test of the expression level of the HTT protein with the only change being the use of anti-MGMT antibodies (#2739, from the Cell signaling Technology® brand) in incubation to reveal the MGMT protein. The vinculin is also used here as a load control.
FIG. 4 illustrates in A the result of the western blot produced from cells of the T98G cell line having been transfected with ASO RG6042, with ASO Scr or treated with lipofectamine alone (Ctrl) and, in B, the quantification of MGMT protein levels obtained by western blot after at least 4 repetitions of the experiment presented in A.
(§4) T98G cells transfected with ASO RG6042, or ASO PH1, or ASO PH2 or ASO PH3, or ASO Scr, are harvested for testing the expression level of HTT proteins and MGMT.
(§5) The protocol is the same as for the previously cited tests for the expression level of the HTT protein and the expression level of the MGMT protein. The vinculin is also used here as a load control.
(§6) FIG. 6 illustrates the quantification of the protein levels of HTT in A and of MGMT in B, obtained by western blot after at least four repetitions of the experiment presented in FIG. 5. The statistics were carried out using the Kruskal-wallis test followed by Dunn's multiple comparison test, error bars, SEM, *p<0.05, **p<0.001.

For the next data set, the system named is huntingtin (HTT) protein. The data set can be described thus: Test of the expression level of the HTT protein in T98G cells transfected with ASO RG6042, PH1, PH2, PH3 or Scr. It counts as cell-based. To be noted: T98G glioma cells, 100 μM ASO in lipofectamine 48 h; western blot vs ASO Scr, at least four repetitions. The protocol: as §1, §3
The cells are rinsed with phosphate-buffered saline (PBS) and then lysed in RIPA-type lysis buffer supplemented with protease and phosphatase inhibitors. The proteins solubilized in the buffer are harvested after centrifugation, denatured in Laemmli loading buffer and deposited on polyacrylamide gel. After migration, the proteins are transferred onto a polyvinylidine difluoride (PVDF) membrane. […] The vinculin is used as a load control.
as §4, §5
FIG. 5 illustrates the result of the western blot produced from cells of the T98G cell line having been transfected with ASO RG6042, with ASO PH1, with ASO PH2, with ASO PH3, or with ASO Scr.
as §6

Another data set has as its system U87 cell line. As to the kind of experiment: Temozolomide (TMZ) sensitivity test (MTT), U87 line. It counts as cell-based. The note with it: U87 cultures, RG6042 vs control. The method, then:
as §1, §2
(§7) The yellow probe of MTT, 3-(4,5-Dimethyl-2-thiazolyl)-2,5-diphenyl-2H-tetrazolium bromide, is then added at a working concentration of 0.5 mg·ml^−1 to each well. […] The optical density (OD) of the contents of each well is then analyzed with a spectrophotometer at wavelengths comprised between 490 nm and 570 nm. […]
FIG. 9 illustrates in A a curve showing the percentage of living cells of the U87 line transfected with ASO RG6042 or treated with lipofectamine alone (Ctrl) as a function of the received dose of TMZ and, in B, the averages TMZ concentrations measured at the LD50 in 4 different MTT tests for cells of the […] line transfected with ASO RG6042 or treated with lipofectamine alone (Ctrl).

Data set [2] has as its system U251 cell line. The data set can be described thus: Temozolomide (TMZ) sensitivity test (MTT), U251 line. It counts as cell-based. To be noted: U251 cultures, RG6042 vs control. The method, then:
as §1, §2, §7
FIG. 8 illustrates in A a curve showing the percentage of live cells of the U251 line transfected with ASO RG6042 or treated with lipofectamine alone (Ctrl) as a function of the received dose of TMZ and, in B, the average TMZ concentrations measured at the LD50 in 4 different MTT tests for cells of the […] line transfected with ASO RG6042 or treated with lipofectamine alone (Ctrl).

In data set [3] the test system is T98G cell line. The data set can be described thus: Temozolomide (TMZ) sensitivity test (MTT), T98G line. It is filed as cell-based. The note with it: T98G cultures, RG6042 vs control. The method, then:
as §1, §2, §7
FIG. 10 illustrates in A a curve showing the percentage of living cells of the T98G line transfected with ASO RG6042 or treated with lipofectamine alone (Ctrl) as a function of the received dose of TMZ and, in B, the average TMZ concentrations measured at the LD50 in 6 different MTT tests for cells of the T98G line transfected with ASO RG6042 or treated with lipofectamine alone (Ctrl).

In data set [4] the test system is U251 cell line. The data set can be described thus: Sensitivity test to the alkylating agent Lomustine (MTT), U251 line. It counts as cell-based. The method, then: as §1, §3
(§8) The cells transfected with ASO RG6042 or ASO Scr are harvested for the sensitivity test to the alkylating agent Lomustine.
(§9) The Lomustine was prepared in the form of a stock solution of 50 mg/ml (214 mM) in pure ethanol. The solution was filtered to sterilize it (0.2 μm pore filter) and frozen at −20° C. until further use. […]
FIG. 11 illustrates in A a curve showing the percentage of living cells of the U251 line transfected with ASO RG6042 or Scr as a function of the dose of Lomustine received and, in B, the mean of the concentrations of Lomustine measured at the LD50 in 4 different MTT assays for U251 cell line transfected with ASO RG6042 or Scr.

In data set [5] the test system is T98G cell line. The data set can be described thus: Sensitivity test to the alkylating agent Lomustine (MTT), T98G line. It is filed as cell-based. The protocol: as §1, §3, §8, §9
FIG. 12 illustrates in A a curve showing the percentage of live cells of the T98G line transfected with ASO RG6042 or Scr as a function of the received dose of Lomustine and, in B, the mean of the concentrations of Lomustine measured at the LD50 in 4 different MTT assays for T98G cell line transfected with ASO RG6042 or Scr.

The next data set has as its system HTT. To be noted: patients with Huntington's disease, after 4 intrathecal injections (Tabrizi et al. 2019); cited from earlier work.

Consider “ASO RG6042: antisense oligonucleotide of sequence SEQ ID NO: 1 targeting huntingtin mRNA; sequence from literature, clinical trials in Huntington's disease (antisense CTCAGTAACATTGACACCAC; listed as DNA, chemistry not given here)”, for which, in the data set on huntingtin protein (HTT), the HTT protein levels result is on record as “significantly reduces”. Besides, the MGMT levels entry in data set [1] (T98G cells transfected with 100 μM ASO in lipofectamine for 48 h, western blot vs ASO Scr / lipofectamine alone) is recorded as “significantly reduces”. Further, the “levels of MGMT protein” value in data set [1] is reported as “significantly reduce”. For the same substance, the “levels of HTT protein” value in the data set on huntingtin (HTT) protein is given as “significantly reduce”. The “reduction in the LD50 at the TMZ” value in the data set with U87 cell line came to 32%; in the data set on U251 cell line [2], 40%; with T98G cell line [3], 45%. For the same substance, the “sensitization to the alkylating agent Lomustine” value in the data set on U251 cell line [4] (U251 cells) and in the data set on T98G cell line [5] (T98G cells) was “sensitizes” each time. Moreover, the “reduction in the LD50 of Lomustine” value in the data set with U251 cell line [4] (U251 cultures, RG6042 vs Scr) was 41%; in the data set on T98G cell line [5] (T98G cultures, RG6042 vs Scr), 47%. The “HTT levels in the cerebrospinal fluid” value in the data set with HTT was “decreased”.

As for “ASO PH1: antisense oligonucleotide of sequence SEQ ID NO: 2 reducing HTT and MGMT levels (antisense TCTCTATTGCACATTCCAAG; listed as DNA, chemistry not given here)”, the “levels of MGMT protein” value in data set [1] is given as “significantly reduce”. In addition, the “levels of HTT protein” value with huntingtin (HTT) protein is reported as “significantly reduce”.

Turning to “ASO PH3: antisense oligonucleotide of sequence SEQ ID NO: 4 reducing HTT and MGMT levels (antisense CCTGCATCAGCTTTATTTGT; listed as DNA, chemistry not given here)”, in data set [1], the “levels of MGMT protein” value was “significantly reduce”. The “levels of HTT protein” value in the data set on huntingtin (HTT) protein was “significantly reduce”.

In the case of “ASO PH2: antisense oligonucleotide of sequence SEQ ID NO: 3 reducing HTT and MGMT levels (antisense CTCGACTAAAGCAGGATTTC; listed as DNA, chemistry not given here)”, in data set [1], the “levels of MGMT protein” value is reported as “significantly reduce”. The “levels of HTT protein” value in the data set on huntingtin (HTT) protein is listed as “significantly reduce”.
